Data as given in a melting point compilation (Tetko et al.; mined from patent text by program, amines drawn as free bases though some values may be those of a salt).

With `COc1ccc(S(=O)C(C)(CC=C(C)C)C(=O)NO)cc1` (stereo not drawn) the melting point was 108 °C.
`Clc1ncc(-c2ccc3ccncc3c2)c2ccccc12` showed a melting point of 169 to 170 °C.
In the case of `O=C1c2ccccc2C(O)(c2ccc(F)cc2)C2=NC3CCCCC3N12` (stereo not drawn), the melting point is reported as 203 to 205 °C.
With `CC1(C(=O)c2c[nH]c3ncc(-c4ccc(N5CCOCC5)cc4)nc23)CCCCC1` the melting point was 233 to 235 °C.
For `CC1=C(CNC(=O)NCc2ccccc2)c2cc(F)ccc2/C1=C\c1ccc(S(C)(=O)=O)cc1`, the melting point was 204 °C.
Work on `COc1cccc2sc(C3CCNC(C)C3)cc12` (stereo not drawn) yielded a melting point of 70 to 73 °C.
For `COc1ccc(NC(=O)/C=C/c2c(OC)cc(OC)cc2OC)cc1`, the melting point was 198 to 200 °C.
`N#CC1=C(c2ccccc2)Nc2n[nH]cc2C1c1ccccc1C#N` (stereo not drawn) showed a melting point of 148 °C.
With `CC(C)CN(Cc1nnc(-c2ncn3c2CN(C)C(=O)c2c(Cl)cccc2-3)o1)CC(C)C` the melting point was 161 to 163 °C.
For `CCOC(=O)c1c(C)nc(N2CCN(C)CC2)c2nnn(CC)c12`, the melting point was 63 to 65 °C.
With `CNc1c(F)cc2c(=O)c(C(=O)O)cn(-c3nc(N)c(F)cc3F)c2c1Cl` the melting point was 251 to 253 °C.
With `O=c1[nH]c2c(Cl)c(Cl)ccc2s1` the melting point was 229 °C.
With `CCC(=O)N1CCC(NC(=O)NC2CCCCCC2)CC1` the melting point was 164 to 172 °C.
`CCCC(CNc1nc(C)c(OC)c(C)n1)c1ccccc1` (stereo not drawn) gave a melting point of 31 to 33 °C.
`COc1ccc(CCCN2CCc3cc(O)ccc3C2)cc1` gave a melting point of 163 to 164 °C.
Molecule `CSc1ccc(-c2nc(SC)ccc2-c2ccc(S(C)(=O)=O)cc2)cc1` has a melting point of 175 °C.
In the case of `Cc1c(CC#N)cc(C(C)(C)C)c(O)c1C`, the melting point is reported as 126 to 128 °C.
In the case of `N#Cc1c[nH]c(-c2ccccc2)c1`, the melting point is reported as 150 to 151 °C.
With `COC(=O)c1cc(NC(=O)c2ccccc2)c2cc(Cc3ccc(F)cc3)cnc2c1O` the melting point was 247 to 249 °C.
`CCCn1nnc(NC(=O)C2c3ccccc3Oc3ccccc32)n1` showed a melting point of 208 to 209 °C.
In the case of `CC12CCc3cc(C#N)ccc3C1=NNC(=O)C2` (stereo not drawn), the melting point is reported as greater than 300 °C.
`Cc1ccnc(C(=O)c2sc(Cl)nc2C)c1` gave a melting point of 115 to 116 °C.
Molecule `CS(=O)(=O)c1cc(Cl)cc(-c2cccnc2-c2cccnc2)c1` has a melting point of 135 °C.
Work on `Cc1cc(N2CCN(Cc3ccc(C(F)(F)F)cc3)C2=O)sc1C(=O)NCc1cccnc1` yielded a melting point of 102 to 104 °C.
`Cc1ccc(Oc2ccc([N+](=O)[O-])cc2)c(O)c1` gave a melting point of 95 to 97 °C.
Work on `CC(=O)OCCn1c(=O)sc2ccc(-c3nc4ccccn4c3C)cc21` yielded a melting point of 113 to 115 °C.
With `NNC(=S)c1cc(F)c2ncc(C(=O)NCc3ccc(Cl)cc3)c(O)c2c1` the melting point was 317 to 319 °C.
In the case of `COc1cc2ncc(C#N)c(Nc3cccc(O)c3C)c2cc1OC`, the melting point is reported as 255 to 257 °C.
With `CC(C)(C)OC(=O)NC[C@H]1CC[C@H](NC(=O)OCc2ccccc2)CC1` the melting point was 130 to 131 °C.
`Cn1cc(C2=CCC3(CC2)OCCO3)c2cc(C#N)ccc21` showed a melting point of 65 to 67 °C.
In the case of `CC(C)(c1ccc(Oc2ccc(N3C(=O)C=CC3=O)cc2)cc1)c1ccc(C(C)(C)c2ccc(Oc3ccc(N4C(=O)C=CC4=O)cc3)cc2)cc1`, the melting point is reported as 214 to 216 °C.
In the case of `CN(C)c1nc2sc3c(NCc4ccco4)ncnc3c2c2c1CCC2(C)C`, the melting point is reported as 89.3 to 91 °C.
For `O=C(NC(c1ccccc1)(c1ccccc1)c1ccccc1)c1ccccc1`, the melting point was 200 to 202 °C.
`CCCCOc1cc(CCC(=O)O)n(Cc2ccc(C(F)(F)F)cc2)n1` gave a melting point of 116 to 118 °C.
For `COc1cccc(NC(=O)C(N)=O)c1C(N)=O`, the melting point was 252 to 255 °C.
`Cc1nc(N(C)C=O)sc1C(=O)CBr` showed a melting point of 80 to 82 °C.
With `COc1cc(C(C)O)c([N+](=O)[O-])cc1OC` (stereo not drawn) the melting point was 107 to 108 °C.
`O=C(CCCCCCSc1ccccc1)c1ncco1` gave a melting point of 39 to 40 °C.
`O=C1Nc2ccc(F)cc2C(=O)N2CC[C@@H]12` gave a melting point of 216 to 217 °C.
In the case of `CC(O)c1nc2c(C(F)(F)F)cccc2c(O)c1C(=O)Nc1nccs1` (stereo not drawn), the melting point is reported as 205 °C.
For `O=C(O)c1ccc(-c2coc(-c3ccc(Cl)cc3)n2)cc1`, the melting point was 288 to 289 °C.
Work on `CC1C(=O)N(c2ccccc2)C(=S)N1c1ccc(Sc2ccccc2)cc1` (stereo not drawn) yielded a melting point of 84 °C.
`O=C(O)c1cc(OCc2ccccc2)ccc1OC1CCOC1=O` (stereo not drawn) showed a melting point of 120 to 122 °C.
Work on `CCN(CCCCCC(C)O)C(=O)CCC(=O)c1ccc(NS(C)(=O)=O)cc1` (stereo not drawn) yielded a melting point of 78 to 80 °C.
For `CCCCc1nc2c(N)nc3c(c2n1CC(C)(C)OCCS(C)(=O)=O)CCCC3`, the melting point was 146 to 148 °C.
Molecule `NC(=O)NN(C(=O)c1ccccc1)c1ccccn1` has a melting point of 206 °C.
`Cc1cn(C(C)(C)C(=O)N(C)C)nc1-c1ccccc1` showed a melting point of 107 to 109 °C.
`O=C1C(Cc2ccccc2)C(c2ccccc2)=Nc2ccccc2N1Cc1ccccc1` (stereo not drawn) showed a melting point of 173 to 174 °C.
Molecule `Cc1cccc2oc(C(=O)Nc3ccc(-c4ccc(S(=O)(=O)NC(C(=O)O)C(C)C)cc4)cc3)c(C)c12` (stereo not drawn) has a melting point of 250 to 252 °C.
`CSc1ccc(N(C(C)C)S(=O)(=O)c2ccc(C)cc2)c([N+](=O)[O-])c1` showed a melting point of 124 to 126 °C.
`COC(=O)c1ccc2c(c1)C1(O)C(=O)c3ccccc3C1(O)O2` (stereo not drawn) gave a melting point of 220 to 223 °C.
Molecule `Brc1ccn2nc(N3CCCC3)nc2c1` has a melting point of 170 to 172 °C.
`COc1ccc(C2=NNC(=O)CC2c2ccccc2)cc1` (stereo not drawn) showed a melting point of 176 to 177 °C.
In the case of `CNC(=S)C1(c2cccc(C)n2)SCCCS1`, the melting point is reported as 168 °C.
Molecule `O=C(Cc1ccc(Br)cc1)OCc1ccccc1` has a melting point of 47.5 to 48 °C.
`COc1ccccc1Oc1c(Cl)nc(-c2cccs2)nc1Cl` showed a melting point of 118 to 120 °C.
With `CCOC(=O)c1ccc(-c2ccc(OCCO)c(-c3ccc(N4CCCC4)c(C(C)(C)C)c3)c2)cc1` the melting point was 193 °C.
For `CCOC(=O)C1=Cc2cc(Cl)cc(C=NO)c2OC1C(F)(F)F` (stereo not drawn), the melting point was 187 to 188 °C.
For `O=C(C#CCO)c1ccc(F)cc1`, the melting point was 63 °C.
In the case of `COC(=O)C1=C(C)Nc2[nH]nc(-c3ccccc3)c2C1c1cccc([N+](=O)[O-])c1` (stereo not drawn), the melting point is reported as 240 to 241 °C.
Work on `N#Cc1ccc(N2C(=O)NC3(CCSCC3)C2=O)cc1C(F)(F)F` yielded a melting point of 209 to 210 °C.
Molecule `CCNC(=O)c1ccc(-c2ccc3nnn(Cc4ccc5ncccc5c4)c3n2)cc1F` has a melting point of 207 to 209 °C.
In the case of `CC(C)(C)c1cc(-c2cccs2)cc2c1OCC2(C)C`, the melting point is reported as 61 to 63 °C.
`C=C(C)CN1C(=O)c2cscc2Nc2ccccc21` showed a melting point of 161 to 163 °C.
Work on `CCCCCCCCOc1ccc(-c2cnc(-c3ccc(O)cc3)nc2)cc1` yielded a melting point of 137 °C.
In the case of `CC(C)(C)c1ccc(C(N)=O)cc1N`, the melting point is reported as 140 to 142 °C.
Work on `CC(C#N)c1ccc(-c2nc3ccccc3o2)cc1` (stereo not drawn) yielded a melting point of 116 to 117 °C.
`Nc1nc(-c2cc(Cl)ccc2Cl)nc(N2CC=CC2)n1` showed a melting point of 205 to 206 °C.
`CSc1ncc2nc(C)nc(Nc3ccc(F)c(Cl)c3)c2n1` gave a melting point of 70 to 75 °C.
`CNC(=O)NS(=O)(=O)c1cc(CCNC(=O)C=Cc2ccc(OC)cc2OC)ccc1OC` gave a melting point of 210 °C.
Molecule `COc1ccc(C2CN(C)CCC2=NO)cc1` (stereo not drawn) has a melting point of 121 to 122 °C.
`Nc1ncc(-c2ccc3ncc(-c4ccc(CN5CCC(C(=O)N6CCCCC6)CC5)cc4)n3n2)cc1C(F)(F)F` gave a melting point of 263 to 266 °C.
For `C[C@@H](O)CNC(=O)N1CC(c2ccc(C(F)(F)F)cc2)C1`, the melting point was 107 to 108 °C.
With `CCCC1CCC(c2cc3c4c(c(F)c(F)c3o2)OCCC4)CC1` (stereo not drawn) the melting point was 89 °C.
`CCCCSc1nnc(-c2ccc([N+](=O)[O-])cc2)s1` gave a melting point of 140 °C.
`COc1ccc(N)c(CCc2cc(OC)ccc2N)c1` gave a melting point of 69 to 71 °C.
With `O=C(O)c1ccccc1-c1nnc(-c2ccccc2)o1` the melting point was 173 to 175 °C.
`O=C(O)C1c2ccccc2COc2ccc(I)cc21` (stereo not drawn) gave a melting point of 191 to 192 °C.
For `COc1ccc(C(=O)N2c3ccccc3C(N3CCCc4cc(C)ccc43)CC2C)cc1OC` (stereo not drawn), the melting point was 139 to 140 °C.
With `CCOc1ccccc1-c1nc2c(OC)cccc2c(=O)[nH]1` the melting point was 198 to 199 °C.
With `COc1ccc(C(=O)c2ccc(CC(=O)O)n2C)cc1` the melting point was 170 to 171 °C.
`COc1cc(Nc2nn(Cc3ccccc3)c(=O)c3ccccc23)cc(OC)c1OC` showed a melting point of 206 to 207 °C.
In the case of `CCCCCc1c(CO)nc(C(C)C)c(CO)c1-c1ccc(F)cc1`, the melting point is reported as 135 to 136 °C.
Molecule `O=C1CN=C(c2ccccc2Cl)c2cc(I)sc2N1` has a melting point of 229 to 231 °C.
Work on `CC(C)(C)Nc1nc2cc(Cl)c(Cl)cc2n1C1CC(CO)C(O)C1O` (stereo not drawn) yielded a melting point of 130 to 132 °C.
`COC(=O)Cn1nnc(-c2ccc(C=Cc3ccc(-c4nc5ccccc5o4)cc3)cc2)c1C#N` showed a melting point of 248 to 249 °C.
Work on `Cc1nn(-c2ccccn2)c2ncc(C(=O)N(C)c3ccccc3)c(Cl)c12` yielded a melting point of 154 to 155 °C.
Molecule `CC1Cc2ccc(Br)cc2C(c2ccc([N+](=O)[O-])cc2)=NN1` (stereo not drawn) has a melting point of 125 to 130 °C.
Work on `O=C(O)CCC(=O)c1ccc(OC2CCCCC2)cc1` yielded a melting point of 190 to 192 °C.
For `CCC(C)C(Cl)C(=O)Oc1ccc(C(=O)O)cc1` (stereo not drawn), the melting point was 97 to 100 °C.
For `CCCN(CCc1c[nH]c2ccc(F)cc12)C1COc2ccc3ncccc3c2C1` (stereo not drawn), the melting point was 67 °C.
For `CSc1ccc2c(=O)c(SC)cn(C)c2c1`, the melting point was 154 to 155 °C.
`CCCCCCCc1ccc(-c2ccc(N)cc2)cc1` showed a melting point of 79 °C.
With `NC(Cc1c[nH]c2cc(Cl)cc(Cl)c12)C(=O)OCCC(=O)OCc1ccccc1` (stereo not drawn) the melting point was 151 to 153 °C.
In the case of `O=C(O)[C@@H]1CCCN1C(=O)C(CS)CS`, the melting point is reported as 138 to 140 °C.
Molecule `CC(C)(C)[Si](C)(C)OC(CCCOC1CCCCO1)COc1ccc2c(=O)cc(-c3ccccc3)oc2c1` (stereo not drawn) has a melting point of 138 to 145 °C.
In the case of `O=C1Nc2ccccc2C12COc1cc(OC(F)(F)F)ccc12` (stereo not drawn), the melting point is reported as 180 to 182 °C.
With `CCN1CCN(CC)c2cc(Nc3nc(Cl)ncc3Cl)ccc2C1=O` the melting point was 71 to 74 °C.
For `CCCN1CCC(O)(c2cc(F)cc(F)c2)C1` (stereo not drawn), the melting point was 117 to 118 °C.
With `CN1Cc2c(C#Cc3ccc(Cl)cc3)ncn2-c2ccc(F)cc2C1=O` the melting point was 221 to 222 °C.
For `Cc1cccc(C2(O)CCN(CC3CCc4ccccc4C3=O)CC2)c1` (stereo not drawn), the melting point was 157 to 159 °C.
`Oc1cccc2c1CCC(c1ccccn1)O2` (stereo not drawn) showed a melting point of 246 to 248 °C.
Work on `O=C(O)Cc1cc(Br)c(S(=O)(=O)c2ccc(O)c(I)c2)c(Br)c1` yielded a melting point of 174 to 176 °C.
